Legend:
[1] = system: human HCT116 tumor cells (CRC); assay: Growth of human HCT116 tumors in humanized Dll4 SCID mice (5-FU study); format: in vivo
Procedure: Each mouse was implanted subcutaneously (sc) with 5×10^6 human HCT116 tumor cells (CRC). […] The mice were then treated with hFc, REGN421, 5-FU or combination of REGN421 and 5-FU. A total of 30 mice were divided into 6 groups (n=5 per cohort). The first group was treated sc with hFc at 2 mg/kg; the second group was treated sc with REGN421 at 2 mg/kg; the third and fourth groups were treated ip with 5-FU at 15 and 25 mg/kg, respectively; the fifth group was treated sc with REGN421 at 2 mg/kg and ip with 5-FU at 15 mg/kg; and the sixth group was treated sc with REGN421 at 2 mg/kg and ip with 5-FU at 25 mg/kg. REGN421 was administered every 3-4 days starting on day 22 and mice received three doses total. 5-FU was administered every 3-4 days starting on day 22 and mice received three doses total.
(§1) To assess the effects of REGN421 and 5-FU as single agents or in combination, the changes in tumor size (volume) were measured, beginning three days before the initial REGN421 treatment, and then on the day of each agent treatment (days 22, 26, 29) and thereafter every 3-4 days until tumors reach ˜600 mm^3 in size. In vivo tumor size is calculated using the formula (length×width^2)/2 (FIG. 3 and Table 5).

human HCT116 tumor cells = assay: Growth of human HCT116 tumors in humanized Dll4 SCID mice (irinotecan study); format: in vivo
Procedure: Each mouse was implanted subcutaneously (sc) with 5×10^6 human HCT116 tumor cells. […] The mice were then treated with hFc, REGN421, irinotecan or combination of REGN421 and irinotecan. A total of 30 mice were divided into 6 groups (n=5 per cohort). The first group was treated sc with hFc at 2 mg/kg; the second group was treated sc with REGN421 at 2 mg/kg; the third and fourth groups were treated ip with irinotecan at 7.5 and 25 mg/kg, respectively; the fifth group was treated sc with REGN421 at 2 mg/kg and ip with irinotecan at 7.5 mg/kg; and the sixth group was treated sc with REGN421 at 2 mg/kg and ip with irinotecan at 25 mg/kg. REGN421 was administered every 3-4 days starting on day 15 and mice received three doses total. Irinotecan was administered every 3-4 days starting on day 15 and mice received three doses total.
as §1, with “irinotecan” for “5-FU”, “combination treatments,” for “combination,”, “are” for “were”, “starting” for “beginning”, “15, 19, 22)” for “22, 26, 29)”, “(length×width^2)/2.” for “(length×width^2)/2 (FIG. 3 and Table 5).”

[2] = system: human VM-Cub1 tumor cells (bladder carcinoma cells); assay: Growth of human VM-Cub1 tumors implanted in humanized Dll4 SCID mice; format: in vivo; conditions: for TGI(%): day 32; for TGD: to 600 mm3
Procedure: The humanized Dll4 SCID mouse was made by replacing the entire extracellular domain of the mouse Dll4 gene with the corresponding extracellular region of the human Dll4 gene (7 kb) in embryonic stem (ES) cells. Homozygous hDll4 mice were generated and bred into SCID background.
A total of 45 mice were divided into nine groups (n=5 per cohort). The first group was treated subcutaneously (sc) with hFc at 2 mg/kg; the second and third groups were treated sc with REGN421 at 0.5 and 2 mg/kg, respectively; the fourth and fifth groups were treated intraperitoneally (ip) with cisplatin at 0.5 and 2 mg/kg, respectively; the sixth group was treated sc with REGN421 at 0.5 mg/kg and ip with cisplatin at 0.5 mg/kg; the seventh group was treated sc with REGN421 at 0.5 mg/kg and ip with cisplatin at 2 mg/kg; the eighth group was treated sc with REGN421 at 2 mg/kg and ip with cisplatin at 0.5 mg/kg; and the ninth group was treated sc with REGN421 at 2 mg/kg and ip with cisplatin at 2 mg/kg. REGN421 was administered every 3-4 days starting on day 14 and mice received three doses total. Cisplatin was administered every 24 hours starting on day 14; mice received four doses total.
To assess the effects of REGN421 and cisplatin as single agents or in combination treatments, the changes in tumor size were recorded. Tumor growth was measured three days before the initial REGN421 treatment, on the day of each REGN421 treatment (days 14, 17 and 21) and thereafter every 3-4 days until tumors reached ˜600 mm3 in size. In vivo tumor size was calculated using the formula (length×width2)/2 (FIG. 1 and Table 1).
Tumor Growth Inhibition, TGI, was determined by calculating the difference in tumor size for treated (T) versus vehicle control (C) tumor at the day the control cohort was euthanized (i.e., at day 32); TGI=[1−(Tfinal−Tinitial)/(Cfinal−Cinitial)]×100.
(§2) Tumor growth delay, TGD, was assessed as the difference in days between treated (T) versus control (C) tumors when each cohort reached a specified tumor size. The predetermined tumor size for this experiment was 600 mm^3.

[3] = system: human A549 tumor cells (non-small cell lung cancer); assay: Growth of human A549 tumors implanted in humanized Dll4 SCID mice; format: in vivo
Procedure: as §2
Each mouse was implanted subcutaneously (sc) with 5×10^6 human A549 tumor cells (non-small cell lung cancer or “NSCLC”). […] A total of 36 mice were divided into 6 groups (n=6 per cohort). The first group was treated sc with hFc at 2 mg/kg; the second group was treated sc with REGN421 at 2 mg/kg; the third and fourth groups were treated ip with cisplatin at 2.5 and 4.5 mg/kg, respectively; the fifth group was treated sc with REGN421 at 2 mg/kg and ip with cisplatin at 2.5 mg/kg; and the sixth group was treated sc with REGN421 at 2 mg/kg and ip with cisplatin at 4.5 mg/kg. REGN421 was administered every 3-4 days starting on day 29 and mice received three doses total. Cisplatin was administered every 24 hours starting on day 29 and mice received two doses total.
To assess the effects of REGN421 and cisplatin as single agents or in combination we measured tumor size (volume), beginning three days before the initial REGN421 treatment, on the day of each agent treatment (days 29, 30, 33, 36) and thereafter every 3-4 days until tumors reached ˜600 mm^3 in size.

A2780 cells = assay: A2780 ovarian xenograft (intraperitoneal) tumor growth inhibition; format: in vivo, human; conditions: SCID mice (native murine Dll4); REGN421 2.5 mg/kg 1x/week, mDll4Ab1 5 mg/kg 1x/week, VEGF-Trap 10 mg/kg 2x/week
Procedure: Ovarian tumor xenograft cells were implanted into humanized Dll4 SCID mice or vendor SCID mice (i.e., SCID mice expressing native murine Dll4). After implantation, mice were treated with REGN421 (anti-human Dll4 antibody, binds to human Dll4), mDll4Ab1 (anti-murine Dll4 antibody, binds to murine Dll4), or a human Fc domain control protein. In one study, mice were treated with VEGF-Trap, mDll4Ab1 or VEGF-Trap plus mDll4Ab1. TOV-112D cells (5×10^6) were implanted subcutaneously into the right flank of humanized Dll4 (n=4) or vendor SCID mice (n=7). Treatment with REGN421 (2.5 mg/kg, 1×/week) or mDll4Ab1 (5 mg/kg, 1×/week) vs. hFc control was initiated one week after tumor cell implantation. Animals were treated for 2 to 3 weeks. A2780 cells (2×10^6) were implanted intraperitoneally into humanized Dll4 or vendor SCID mice (n=4-5). Treatment with REGN421 (2.5 mg/kg, 1×/week) or mDll4Ab1 (5 mg/kg, 1×/week) vs. hFc control was initiated one week after tumor cell implantation. For the A2780 combination study, simultaneous treatment with mDll4Ab1 (5 mg/kg, 1×/week) and VEGF-Trap (10 mg/kg, 2×/week) was initiated one week after tumor cell implantation. A VEGF-Trap single treatment arm was included in this study. Animals bearing A2780 tumors were treated for 4-5 weeks. SKOV-3 cells (5×10^6) in matrigel were implanted subcutaneously and tumor-bearing animals (n=10) were dosed with REGN421 (2.5 mg/kg) and mDll4Ab1 (5 mg/kg) once weekly. OVCAR-3 cells (1×10^7) were implanted subcutaneously into the right flank of vendor SCID mice (n=7). Treatment with mDll4Ab1 (5 mg/kg 1×/week) vs. hFc control was initiated 66 days after tumor cell implantation. Animals were treated for a total of 5 weeks. Tumor growth inhibition (TGI) was measured as detailed above.

[4] = system: rat C6 tumor cells (glioblastoma cells); assay: Growth of rat C6 tumors implanted in SCID mice; format: in vivo
Procedure: Each mouse was implanted subcutaneously (sc) with 1×10^6 rat C6 tumor cells (glioblastoma cells). […] Since these mice expressed mouse Dll4, the Dll4 Ab used in this experiment was prepared in-house, based on the published sequence (WO 2007/143689), and designated as REGN577. […] A total of 30 tumor-bearing male mice were randomized into six groups (N=5). […] Tumor size was calculated using the formula, (length×width2)/2.
TGI and TGD were determined (Table 3).

[5] = system: human MDA-MB-231 breast tumor cells; assay: Growth of human MDA-MB-231 breast tumors implanted in SCID mice
Procedure: The effect of anti-Dll4 antibody in combination with docetaxel (TAXOTERE®, sanofi-aventis) on tumor growth was evaluated on tumors implanted in Severe Combined Immunodeficiency (SCID) mice. […] After the tumors were established in the mice (tumor size of ˜150-200 mm^3, approximately 45 days after implantation), mice were treated with hFc, docetaxel, Dll4 antibody, or a combination of docetaxel plus Dll4 antibody. A total of 25 tumor-bearing male mice were randomized into five groups (N=5 mice per group). […] Docetaxel and/or Dll4 antibody were administered on the same day. Animals were treated 2 times per week and received a total of 3 doses. Starting from the day of initial treatment, body weight and tumors were measured twice a week until the mice are euthanized. Mice were euthanized when tumors reached ˜600 mm^3 in size. Tumor size was calculated using the formula (length×width^2)/2.
The control tumors reached ˜600 mm^3 and were harvested on day 63.

[6] = 5-FU 15 mg/kg ip (45 mg/kg total)
[7] = 5-FU 25 mg/kg ip (75 mg/kg total)
[8] = irinotecan 7.5 mg/kg ip (22.5 mg/kg total)
[9] = irinotecan 25 mg/kg ip (75 mg/kg total)
[10] = cisplatin 2.5 mg/kg ip (5 mg/kg total)
[11] = cisplatin 4.5 mg/kg ip (9 mg/kg total)
[12] = docetaxel 4.5 mg/kg iv (13.5 mg/kg total)
[13] = docetaxel 6 mg/kg iv (18 mg/kg total)

Molecule: O=c1[nH]cc(F)c(=O)[nH]1 [5-FU, 5-fluorouracil]
- TGD [1, 6]: 4 days
- TGI(%) at Day 39 [1, 6]: 5.6%
- TGD [1, 7]: 2 days
- TGI(%) at Day 39 [1, 7]: 0%

Molecule: CCc1c2c(nc3ccc(OC(=O)N4CCC(N5CCCCC5)CC4)cc13)-c1cc3c(c(=O)n1C2)COC(=O)[C@]3(O)CC [Irinotecan, irinotecan]
- TGD (human HCT116 tumor cells; [8]): 8 days
- TGI(%) at Day 39 (human HCT116 tumor cells; [8]): 71.2%
- TGD (human HCT116 tumor cells; [9]): 16 days
- TGI(%) at Day 39 (human HCT116 tumor cells; [9]): 100.5%

Molecule: N.N.[Cl][Pt][Cl] [Cisplatin, cis-diamminedichloroplatinum]
- Euthanized ([2]; cisplatin 0.5 mg/kg/dose ip x4): 45 days
- TGI(%) ([2]; cisplatin 0.5 mg/kg/dose ip x4): 60.7%
- TGI(%) ([2]; cisplatin 0.5 mg/kg/dose ip x4, listed as cisplatin): 61%
- TGD ([2]; cisplatin 0.5 mg/kg/dose ip x4): 13 days
- Euthanized ([2]; cisplatin 2 mg/kg/dose ip x4): 41 days
- TGI(%) ([2]; cisplatin 2 mg/kg/dose ip x4): 53.8%
- TGI(%) ([2]; cisplatin 2 mg/kg/dose ip x4, listed as cisplatin): 54%
- TGD ([2]; cisplatin 2 mg/kg/dose ip x4): 9 days
- TGD [3, 10]: 4 days
- TGI (%) at Day 57 [3, 10]: 35%
- TGD [3, 11]: 11 days
- TGI (%) at Day 57 [3, 11]: 22%

Molecule: VEGF-Trap: VEGF receptor-based chimeric molecule, SEQ ID NO:121 [reference compound]
- % TGI (A2780 cells): 88%

Molecule: CC(=O)O[C@@]12CO[C@@H]1C[C@H](O)[C@@]1(C)C(=O)[C@H](O)C3=C(C)[C@@H](OC(=O)[C@H](O)[C@@H](NC(=O)OC(C)(C)C)c4ccccc4)C[C@@](O)([C@@H](OC(=O)c4ccccc4)[C@H]21)C3(C)C [Docetaxel, docetaxel]
- TGD [4, 12]: 6 days
- TGI(%) at Day 25 [4, 12]: 62%
- TGD [4, 13]: 7 days
- TGI(%) at Day 25 [4, 13]: 70%
- TGD [5, 12]: 4 days
- TGI(%) at Day 25 [5, 12]: 37%
- TGD [5, 13]: 4 days
- TGI(%) at Day 25 [5, 13]: 52%

Reference: US20140134169A1, “Methods of Treating Ovarian Cancer with Dll4 Antagonists” (Regeneron Pharmaceuticals, Inc., priority 2012, published 2014)
